Results published in patent US20240409552A1, “GUAIANOLIDE OLIGOMERS, PREPARATION METHOD AND APPLICATION” (KUNMING INSTITUTE OF BOTANY, CHINESE ACADEMY OF SCIENCES, priority 2021, published 2024).
pIC50: −log10 of the molar value.

Legend:
Type in all cases: cell-based
[1] = system: Huh7 cells; assay: MTT antihepatoma assay, Huh7 cells; conditions: Homo sapiens, Huh-7, 48 h incubation
Procedure: (§1) • (1). […] The plates were measured at 490 nm using a microplate reader (BIO-RAD, USA). The inhibitory ratio was calculated as [(A490 negative−A490 treated)/(A490 negative−A490 blank)]×100%. The IC50 values were calculated with GraphPad Prism 5 (GraphPad Software, California, USA). Repeat the experiment three times.

[2] = system: SK-Hep-1 cells; assay: MTT antihepatoma assay, SK-Hep-1 cells; conditions: Homo sapiens, SK-HEP1, 48 h incubation
Procedure: as §1

[3] = system: HepG2 cells; assay: MTT antihepatoma assay, HepG2 cells; conditions: Homo sapiens, 48 h incubation
Procedure: as §1

Compound | pIC50 [1] | pIC50 [2] | pIC50 [3]
C=C1C(=O)O[C@@H]2C3=C([C@H]4C[C@]3(C)[C@]3(C4)C(=O)O[C@H]4[C@H]3CCC(C)=C3C[C@H]5O[C@@]5(C)[C@@H]34)[C@@](C)(O)CC[C@@H]12 [Compound 1] | 4.69 | 4.95 | 4.89
C=C1C(=O)O[C@@H]2C3=C([C@H]4C[C@]3(C)[C@]3(C4)C(=O)O[C@@H]4C5=C([C@H]6C[C@]5(C)[C@]5(C6)C(=O)O[C@@H]6[C@H]7C(C)=CC[C@@]78O[C@@]8(C)CC[C@H]65)[C@@](C)(O)CC[C@H]43)[C@@](C)(O)CC[C@@H]12 [Compound 3] | 5.17 | 5.14 | 5.21
CNC(=O)c1cc(Oc2ccc(NC(=O)Nc3ccc(Cl)c(C(F)(F)F)c3)cc2)ccn1 [sorafenib, reference compound] | 4.96 | 4.65 | 4.89

Now from value to compound:

pIC50 [1] | pIC50 [2] | pIC50 [3] | Compound
4.92 | 4.78 | 5.23 | C=C1C(=O)O[C@@H]2C3=C([C@H]4C[C@]3(C)[C@]3(C4)C(=O)O[C@@H]4C5C(=C(C)CC[C@H]43)CC[C@@]5(C)O)[C@@](C)(O)CC[C@@H]12 (stereo partly drawn) [Compound 2]
4.96 | 5.10 | 4.83 | C=C1C(=O)O[C@@H]2C3=C([C@H]4C[C@]3(C)[C@]3(C4)C(=O)O[C@@H]4C5=C([C@H]6C[C@]5(C)[C@]5(C6)C(=O)O[C@@H]6C7=C([C@H]8C[C@]7(C)[C@]7(C8)C(=O)O[C@@H]8[C@H]9C(C)=CC[C@@]9%10O[C@@]%10(C)CC[C@@H]87)[C@@](C)(O)CC[C@H]65)[C@@](C)(O)CC[C@H]43)[C@@](C)(O)CC[C@@H]12 [Compound 4]
